Assay results from patent publication US20230136569A1, “USE OF NMN TO REDUCE IMMUNODEPRESSION AND IMMUNOSENESCENCE” (NUVAMID SA, priority 2020, published 2023).

How the values were obtained:
Format in all cases: in vivo
[1] = tested on: B cells in the bone marrow; assay: Flow cytometry of B cells in bone marrow of old mice; conditions: 500 mg/kg p.o., α-NMN 4 weeks; for number of CD38+ B cells in bone marrow: β-NMN 6 weeks (FIG. 4B); for number of CD45+ B cells in bone marrow: β-NMN 6 weeks (FIG. 5A); for number of pre-pro-B cells in bone marrow: β-NMN 6 weeks (FIG. 5B); for number of pro-B cells in bone marrow: β-NMN 6 weeks (FIG. 5C); for number of pre-B cells in bone marrow: β-NMN 6 weeks (FIG. 5D); for number of immature B cells in bone marrow: β-NMN 6 weeks (FIG. 5E); for number of B cells in bone marrow: β-NMN 6 weeks, vs non-treated old mice (FIG. 4A)
Method: The administering of β-NMN at 500 mg/kg, of α-NMN at 500 mg/kg and of the vehicle (water) was obtained via oral route (p.o) in the drinking water to young and old mice. The solutions were prepared by dissolving the powder of β-NMN or α-NMN in the vehicle (water). The study comprised 4 groups each having 6 mice: • Group 1: young mice (aged 10 weeks)+drinking water (vehicle) • Groupe 2: old mice (aged 15 months)+drinking water (vehicle) • Group 3: old mice (aged 15 months)+compound I-B (alpha-NMN) in the drinking water • Group 4: old mice (aged 15 months)+compound I-A (beta-NMN) in the drinking water The water consumption of the mice was assessed per cage every other day. The mice were weighed every week. The mice in Group 3 were sacrificed after 4 weeks for organ collection and characterisation of T cell function. The mice in Group 4 were sacrificed after 6 weeks for organ collection and characterisation of T cell function. On the day of sacrifice, the mice were anaesthetised with Vetoflurane (isoflurane) and blood samples were taken from the retroorbital sinus. The blood was incubated for 30 minutes at ambient temperature and then centrifuged at 1300 g for 10 minutes. After sacrificing of the mice, the spleen, thymus, and bone marrow of each animal were removed. The thymus was weighed and measured to evaluate involution thereof. For illustration purposes, photos of the thymus were taken on 5 animals per group. The thymus was divided into two parts: one part was treated with formol for histological examination. The second part was treated for characterisation of the immune cells. For characterisation of the cells, the thymus and spleen were crushed through a sieve of […] over a 50 mL tube with a syringe plunger. The bone marrow was rinsed with RPMI culture medium using a needle and syringe. The cell suspension was then centrifuged at 400 g for 5 minutes at 4° C. Lysis of the red blood cells was also performed before the cell count and use thereof for cytometry. The isolated cells of the spleen, thymus and bone marrow were marked with antibodies in accordance with the following tables to identify the proportion of effector and memory naive T and B cells. The following bone marrow cells were also examined for characterisation as a function of the combination of proteins on the surface thereof: [table] Measured parameters: The results of flow cytometry are expressed in number or as a proportion of cells per organ. The weight of the thymus is expressed in grams.

[2] = tested on: thymocytes; assay: Flow cytometry of thymocytes from old mice; conditions: 500 mg/kg p.o. in drinking water, 6 weeks (FIG. 3)
Method: The administering of β-NMN at 500 mg/kg, of α-NMN at 500 mg/kg and of the vehicle (water) was obtained via oral route (p.o) in the drinking water to young and old mice. The solutions were prepared by dissolving the powder of β-NMN or α-NMN in the vehicle (water). The study comprised 4 groups each having 6 mice: • Group 1: young mice (aged 10 weeks)+drinking water (vehicle) • Groupe 2: old mice (aged 15 months)+drinking water (vehicle) • Group 3: old mice (aged 15 months)+compound I-B (alpha-NMN) in the drinking water • Group 4: old mice (aged 15 months)+compound I-A (beta-NMN) in the drinking water The water consumption of the mice was assessed per cage every other day. The mice were weighed every week. The mice in Group 3 were sacrificed after 4 weeks for organ collection and characterisation of T cell function. The mice in Group 4 were sacrificed after 6 weeks for organ collection and characterisation of T cell function. On the day of sacrifice, the mice were anaesthetised with Vetoflurane (isoflurane) and blood samples were taken from the retroorbital sinus. The blood was incubated for 30 minutes at ambient temperature and then centrifuged at 1300 g for 10 minutes. […] The thymus was weighed and measured to evaluate involution thereof. […] Measured parameters: The results of flow cytometry are expressed in number or as a proportion of cells per organ. […]

[3] = Weight gain and water consumption of mice given the compounds in drinking water; conditions: old mice (15 months), 500 mg/kg p.o. in drinking water; compared with non-treated mice of 15 months (FIG. 1A)
Method: The administering of β-NMN at 500 mg/kg, of α-NMN at 500 mg/kg and of the vehicle (water) was obtained via oral route (p.o) in the drinking water to young and old mice. The solutions were prepared by dissolving the powder of β-NMN or α-NMN in the vehicle (water). The solution was used at ambient temperature for no more than 2 days and was freshly prepared for each new administration. The mice were weighed each week to adapt the dose of the compound to be administered. Throughout the entire phase, a standard food diet and tap water were provided ad libitum. The study comprised 4 groups each having 6 mice: • Group 1: young mice (aged 10 weeks)+drinking water (vehicle) • Groupe 2: old mice (aged 15 months)+drinking water (vehicle) • Group 3: old mice (aged 15 months)+compound I-B (alpha-NMN) in the drinking water • Group 4: old mice (aged 15 months)+compound I-A (beta-NMN) in the drinking water The water consumption of the mice was assessed per cage every other day. The mice were weighed every week. The mice in Group 3 were sacrificed after 4 weeks for organ collection and characterisation of T cell function. The mice in Group 4 were sacrificed after 6 weeks for organ collection and characterisation of T cell function. On the day of sacrifice, the mice were anaesthetised with Vetoflurane (isoflurane) and blood samples were taken from the retroorbital sinus. […]

Row | SMILES | number of CD38+ B cells in bone marrow [1] | number of CD45+ B cells in bone marrow [1] | number of pre-pro-B cells in bone marrow [1] | number of pro-B cells in bone marrow [1] | number of pre-B cells in bone marrow [1] | number of immature B cells in bone marrow [1] | number of B cells in bone marrow [1] | number of CD8+ thymocytes [2] | weight gain of the treated mice [3]
1 | NC(=O)c1ccc[n+]([C@@H]2O[C@H](COP(=O)([O-])O)[C@@H](O)[C@H]2O)c1 (stereo in doubt) [I-A, nicotinamide mononucleotide] | restoring of the number of CD38+ B cells to the level expressed by the young mice | significant increase in the number of CD45+ B cells | increase in the number of pre-pro B cells | does not show any impact on the number of pro-B cells | increase in the number of pre-B cells | increase | significant increase in the number of B cells | increase in the number of CD8+ thymocytes | did not significantly increase the weight
2 | NC(=O)c1ccc[n+]([C@H]2O[C@H](COP(=O)([O-])O)[C@@H](O)[C@H]2O)c1 (stereo in doubt) [I-B, alpha nicotinamide mononucleotide] | restoring of the number of CD38+ B cells to the level expressed by the young mice | significant increase in the number of CD45+ B cells | increase in the number of pre-pro B cells | does not show any impact on the number of pro-B cells | increase in the number of pre-B cells | increase | significant increase in the number of B cells |  | did not significantly increase the weight
